As a reminder, the IC50 is the concentration that inhibits the measured activity by half. A high value points to a need for much substance. For orientation: inhibition means how much of the control response was suppressed.

Consider two molecules from patent publication US8217073B2, “Pyrrole derivatives as therapeutic compounds” (Myrexis, Inc., priority 2005, dated 2012).

Where two headings read alike, the source gives them in different places.

Assay [1] concerns Aβ42. The conditions noted are these: transgenic mouse model; cited from earlier work.
The test system of assay [2] is Aβ42. As to conditions: CHO cells; cited from earlier work.
Another assay has as its system COX. The conditions noted are these: cited from earlier work.
The test system of a further assay is Aβ42 secretion. The assay is described as follows: Aβ42 secretion by H4 cells expressing APP695, sandwich ELISA. It counts as cell-based, human. As to conditions: Homo sapiens, medium collected at 24 or 48 hours, several numbers = independent sets of assays. As to the method:
(§1) The present invention provides compositions and methods for lowering Aβ42 levels. To test whether compounds and compositions are capable of modulating Aβ levels in cultured cells, sandwich enzyme-linked immunosorbent assays (ELISAs) are employed to measure secreted Aβ (Aβ42 and/or Aβ40 levels). In this example, H4 cells expressing wide type APP695 are seeded at 200,000 cells per well in 6 well plates, and incubated at 37° C. with 5% CO2 overnight. Cells are treated with 1.5 ml medium containing vehicle (DMSO) or a test compound at 1.25 μM, 2.5 μM, 5.0 μM and 10.0 μM (as well as other concentration if desirable) for 24 hours or 48 hours. The supernatant from treated cells is collected into eppendorf tubes and frozen at −80° C. for future analysis.
(§2) The amyloid peptide standard is reconstituted and frozen samples are thawed. The samples and standards are diluted with appropriate diluents and the plate is washed 4 times with Working Wash Buffer and patted dry on a paper towel. 100 μL per well of peptide standards, controls, and dilutions of samples to be analyzed is added. The plate is incubated for 2 hours while shaking on an orbital plate shaker at RT. The plate is then washed 4 times with Working Wash Buffer and patted dry on a paper towel. Detection Antibody Solution is poured into a reservoir and 100 μL/well of Detection Antibody Solution is immediately added to the plate. The plate is incubated at RT for 2 hours while shaking and then washed four times with Working Wash Buffer and patted dry on a paper towel. Secondary Antibody Solution is then poured into a reservoir and 100 μL/well of Secondary Antibody Solution is immediately added to the plate. The plate is incubated at RT for 2 hours with shaking, washed 5 times with Working Wash Buffer, and patted dry on a paper towel.
(§3) 100 μL of stabilized chromogen is added to each well and the liquid in the wells begins to turn blue. The plate is incubated for 30 minutes at room temperature and in the dark. 100 μL of stop solution is added to each well and the plate is tapped gently to mix resulting in a change of solution color from blue to yellow. The absorbance of each well is read at 450 nm having blanked the plate reader against a chromogen blank composed of 100 μL each of stabilized chromogen and stop solution. The plate is read within 2 hours of adding the stop solution. The absorbance of the standards is plotted against the standard concentration and the concentrations of unknown samples and controls are calculated.
(§4) The present invention provides compositions and methods for lowering Aβ42 levels. To test whether compounds and compositions are capable of modulating Aβ levels, sandwich enzyme-linked immunosorbent assays (ELISAs) is employed to measure secreted Aβ42 and/or Aβ40 levels. In this example, H4 cells expressing wide type APP695 are seeded at 200,000 cells per well in 6 well plates, and incubated at 37° C. with 5% CO2 overnight. Cells are treated with 1.5 mL medium containing vehicle (DMSO) or a test compound at 1.25 μM, 2.5 μM, 5.0 μM and 10.0 μM concentration for 24 hours or 48 hours. The supernatant from treated cells is collected into eppendorf tubes and frozen at −80° C. for future analysis.
(§5) 130 μL per well of samples, standards, and blanks is added to a 96-well polypropylene plate. […] of samples, standards, and blanks from the polypropylene plate is added to the antibody-coated plates. The strip-holder with the appropriate number of strips is applied to the antibody-coated plates and the strips are covered with an adhesive sealer. The plate is then incubated 3 hours at room temperature while shaking on an orbital plate shaker.
(§6) The first antibody solution is prepared with Conjugate Diluent 1 at 1:100 ratio. Each well of the antibody-coated plates is washed 5 times with 400 μL washing solution and 100 μL of the prepared first antibody solution is added to each well. […]
(In general: An ELISA detects its analyte on a solid surface through an enzyme-linked reagent.)

In another assay the test system is Aβ40 secretion. The assay is described as follows: Aβ40 secretion by H4 cells expressing APP695, sandwich ELISA. It counts as cell-based, human. As to conditions: Homo sapiens, medium collected at 24 or 48 hours, several numbers = independent sets of assays. As for the experimental part:
as §1, §2, §3, §4, §5, §6

[3] abbreviates: test compound 100 μM vs DMSO control.

For the molecule `C[C@@H](C(=O)O)c1ccc(-c2ccccc2)c(F)c1` [R-Flurbiprofen], the Aβ42 lowering result with Aβ42 [1] and with Aβ42 [2] was “lower Aβ42” each time. In the assay on COX, the “inhibition of COX activity” value is “negligibly inhibits COX activity”.

With `Cc1c(-c2ccccc2)cc(-c2ccccc2)n1-c1cccc(CCC(=O)O)c1` [Compound 5, 3-[3-(2-Methyl-3,5-diphenyl-pyrrol-1-yl)-phenyl]-propionic acid], the figures for the IC50 in the assay with Aβ42 secretion (about 1 μM to about 100 μM) and in the assay with Aβ40 secretion (about 1 μM to about 100 μM) were 100 µM and greater than 100 µM, respectively. Besides, the inhibition at 100 µM in the assay on Aβ42 secretion (setting [3]) was 55%; in the assay with Aβ40 secretion (setting [3]) it was 31%.
